Data taken from US6518062B1, “Enzyme combinations for destroying proliferative cells” (priority 1996, dated 2003).
Values joined by “and” are separate entries in the source; they are usually repeats but may differ in a detail not shown here. Equal values may be shown once. Marks after values point to notes of the source that are not given here.

Key:
[1] = target: T1, Human guanylate kinase (erythrocytes) (Homo sapiens, UniProt Q16774); conditions: human erythrocyte GMPK, published values a, c, cited from earlier work; for Km: b
T1 construct: enzymatic preparations of guanylate kinase and of nucleoside diphosphate kinase of human erythrocytes; host or cells: human erythrocytes
T1 sequence (Q16774 1-197): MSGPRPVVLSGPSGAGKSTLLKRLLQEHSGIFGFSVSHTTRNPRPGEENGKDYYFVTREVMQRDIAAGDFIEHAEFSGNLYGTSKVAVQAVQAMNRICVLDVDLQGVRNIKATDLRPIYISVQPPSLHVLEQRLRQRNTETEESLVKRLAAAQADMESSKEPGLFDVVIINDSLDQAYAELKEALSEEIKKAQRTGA

[2] = target: T2, Yeast guanylate kinase (S. cerevisiae) (Saccharomyces cerevisiae, UniProt P15454); experiment: Kinetic constants of yeast guanylate kinase for GCVMP and ACVMP; type: biochemical; conditions: for Km / Vmax: yeast GMPK, 30° C., pH 7.8, 4 mM ATP
T2 sequence (P15454 1-187): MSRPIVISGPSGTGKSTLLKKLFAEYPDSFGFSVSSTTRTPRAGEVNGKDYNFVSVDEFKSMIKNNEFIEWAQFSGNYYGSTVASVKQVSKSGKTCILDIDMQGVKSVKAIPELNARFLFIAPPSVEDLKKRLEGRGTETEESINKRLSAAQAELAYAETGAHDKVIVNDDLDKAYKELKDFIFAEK
Experimental: The kinetic constants for the yeast GMP kinase purified as described in Example 3 are determined under the following enzymatic assay conditions: The yeast GMP kinase is incubated for 10 min at 30° C. in 100 μl of 50 mM Tris/HCl buffer pH 7.8 containing 4 mM ATP, 10 mM MgCl2, 100 mM KCl, 1 mg/ml BSA (bovine serum albumin) and 5-100 μ[…] (40 nCi/nmol) or 200-3200 μ[…] (40 nCi/nmol). he reaction is stopped by heating the reaction mixture for 3 min at 80° C., 50 μl of 10 mM potassium phosphate buffer pH 3.5 are added, and after centrifugation for 2 min at 10,000×g, 100 μl of supernatant are analysed by high performance liquid chromatography (HPLC) in the following system: for the calculation of the kinetic constants, the quantity of yeast GMP kinase introduced into the enzymatic reaction is adjusted so as to convert at most 10% of the substrate initially introduced. The Michaelis curves are adjusted to the experimental points with the aid of the Grafit software (Sigma). […] For substrates entering into competition, the Vmax/Km constant determines the specificity of the enzyme for these substrates. It is known by the name of “specificity constant” [A. Fersht, Enzyme Structure and Mechanism, 1985, W. H. Fréeman and Co., London].

[3] = target: T3, HSV1-TK/S. cerevisiae GMPK fusion protein (UniProt P0DTH5+P15454, V34A); experiment: Phosphorylation to diphosphate by TK-GMPK fusion protein; type: biochemical, herpes simplex virus type 1; S. cerevisiae
T3 construct: made in house; host or cells: E. coli BL21 DE3 pXL3098 (pET11a)
T3 sequence (P0DTH5+P15454 with tags, fused parts or gaps P15454:V34A): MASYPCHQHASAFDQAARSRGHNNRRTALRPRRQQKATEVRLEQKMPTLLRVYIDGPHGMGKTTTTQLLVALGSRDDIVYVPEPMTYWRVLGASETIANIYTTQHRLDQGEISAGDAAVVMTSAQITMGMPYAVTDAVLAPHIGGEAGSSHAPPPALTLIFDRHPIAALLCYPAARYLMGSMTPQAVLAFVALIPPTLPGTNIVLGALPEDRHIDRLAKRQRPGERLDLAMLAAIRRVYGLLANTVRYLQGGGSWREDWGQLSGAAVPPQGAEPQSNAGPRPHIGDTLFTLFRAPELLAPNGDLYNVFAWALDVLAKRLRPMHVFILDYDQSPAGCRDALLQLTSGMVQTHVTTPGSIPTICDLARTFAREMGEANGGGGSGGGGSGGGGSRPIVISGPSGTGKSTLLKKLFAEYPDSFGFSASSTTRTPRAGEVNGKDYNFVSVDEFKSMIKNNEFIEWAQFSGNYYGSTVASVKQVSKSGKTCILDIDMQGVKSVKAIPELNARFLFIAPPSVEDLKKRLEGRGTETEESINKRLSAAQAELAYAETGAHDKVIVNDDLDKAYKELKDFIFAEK
Experimental: (§1) The reaction is stopped by heating for 3 min at 80° C.; after centrifugation, 100 μl of incubation product are analyzed in the following system: […]

Mixture 2-865:H12/GMPK = experiment: Phosphorylation to diphosphate by mixture of 2-865:H12 and GMPK; type: biochemical
Experimental: The capacity of the TK-GMPK fusion protein to convert GCV or ACV to GCVDP or ACVDP compared with a synthetic mixture of TK and GMPK is determined in the following manner:
as §1

[4] = target: T4, HSV1-TK, GMPK and bovine (liver) NDPK (Human herpesvirus 1, UniProt P0DTH5); experiment: TK-GMPK-NDPK coupling with bovine liver NDPK; type: biochemical; conditions: substrate 100 μM
T4 construct: purchased SIGMA; host or cells: bovine liver (NDPK)
Experimental: (§2) In a preferred coupling mode, the incubation is carried out in 100 μl of 50 mM Tris/HCl buffer pH 7.8, containing 1 mg/ml of BSA (bovine serum albumin), 5 mM ATP, 4 mM MgCl2, 12 mM KCl, 2 mM DTT, 600 μM EDTA, 100 μM [8-3H]-GCV (40 nCi/nmol) or 100 μM [2-3H]-ACV 40 nCi/nmol and various quantities of TK, GuK and NDPK (cf Table 2).

[5] = target: HSV1-TK and GMPK from S. cerevisiae (Human herpesvirus 1, UniProt P0DTH5); experiment: TK-GMPK coupling, % of products formed; type: biochemical, herpes simplex virus type 1; S. cerevisiae; conditions: for % of the products formed, NDP / % of the products formed, NMP: substrate 100 μM
Experimental: as §2

[6] = target: T5, HSV1-TK, GMPK and human (erythrocyte) NDPK (Human herpesvirus 1, UniProt P0DTH5); experiment: TK-GMPK-NDPK coupling with human erythrocyte NDPK; type: biochemical; conditions: substrate 100 μM
T5 construct: purchased SIGMA; host or cells: human erythrocytes (NDPK)
Experimental: as §2

[7] = target: T6, HSV1-TK, GMPK and baker's yeast NDPK (Human herpesvirus 1, UniProt P0DTH5); experiment: TK-GMPK-NDPK coupling with baker's yeast NDPK; type: biochemical, herpes simplex virus type 1; S. cerevisiae; conditions: substrate 100 μM
T6 construct: purchased SIGMA

[8] = target: Mixture wild type TK/GMPK (Human herpesvirus 1, UniProt P0DTH5); type: biochemical, herpes simplex virus type 1; S. cerevisiae; conditions: Mixture wild type/GMPK 1.66/0.33 μg; GCV 100 μM
Experimental: as §1

mice = conditions: mouse, in vivo, 150 mg/kg; cited from earlier work
glioma = conditions: rats having a glioma, HSV1-TK gene expressed, 150 mg/kg doses injected; cited from earlier work
[9] = TK 11.7 μg, GMPK 74 μg, bovine NDPK 5 μg, 30 min
[10] = TK 11.7 μg, GMPK 74 μg, human NDPK 6.75 μg, 30 min
[11] = TK 11.7 μg, GMPK 74 μg, yeast NDPK 1.5 μg, 20 min
[12] = TK 11.7 μg, GMPK 74 μg, yeast NDPK 15 μg, 30 min
[13] = TK 10.4 μg, GMPK 7.4 μg, bovine NDPK 0.5 μg, 20 min
[14] = TK 10.4 μg, GMPK 7.4 μg, bovine NDPK 5 μg, 30 min
[15] = TK 10.4 μg, GMPK 7.4 μg, 30 min
[16] = TK 10.4 μg, GMPK 7.4 μg, human NDPK 0.675 μg, 20 min
[17] = TK 10.4 μg, GMPK 7.4 μg, human NDPK 6.75 μg, 30 min
[18] = TK 1.3 μg, GMPK 2.5 μg, yeast NDPK 0.75 μg, 60 min
[19] = TK 10.4 μg, GMPK 7.4 μg, yeast NDPK 0.75 μg, 20 min
[20] = TK 10.4 μg, GMPK 7.4 μg, yeast NDPK 1.5 μg, 30 min

In the case of acyclovir monophosphate [ACVMP], the Km [1] is listed as 218 µM and 209 to 753 µM and 330 µM, the Vmax [1] is listed as 1.9^a μmol/min/mg and 3.6^c μmol/min/mg and the Km [2] is listed as 280 µM. For the same molecule, the Vmax [2] was 22 µmol/min/mg.
With Nc1nc2c(ncn2COCCO)c(=O)[nH]1 [ACV, acyclovir] the GCVDP formed ([3]; Fusion 50 μg, ACV 20 μM) was 1220** pmmol, the GCVDP formed ([3]; Fusion 50 μg, ACV 50 μM) was 2920** pmmol and the GCVDP formed ([3]; Fusion 50 μg, ACV 50 μM Incub 1 h) was 6740** pmmol. For the same molecule, the GCVDP formed ([3]; Fusion 200 μg, ACV 100 μM) was 18500** pmmol, the GCVDP formed (Mixture 2-865:H12/GMPK; Mixture 2-865/H12/GMPK 133/66 μg, ACV 100 μM) was 17260** pmmol and the GCVDP formed (Mixture 2-865:H12/GMPK; Mixture 2-865: H12/GMPK 33/17 μg, ACV 20 μM) was 2325** pmmol. The GCVDP formed (Mixture 2-865:H12/GMPK; Mixture 2-865: H12/GMPK 33/17 μg, ACV 50 μM) was 3680** pmmol, the GCVDP formed (Mixture 2-865:H12/GMPK; Mixture 2-865: H12/GMPK 33/17 μg, ACV 50 μM Incub 1 h) was 5890** pmmol and the “% of the products formed, NDP” value [4, 9] was 82.0%. For the same molecule, the “% of the products formed, NMP” value [4, 9] was 1.7%, the “% of the products formed, NTP” value [4, 9] was 1.3% and the “% of the products formed, NDP” value ([5]; TK 11.7 μg, GMPK 74 μg, 20 min) was 54%. For the same molecule, the “% of the products formed, NMP” value ([5]; TK 11.7 μg, GMPK 74 μg, 20 min) was 26.0%, the “% of the products formed, NDP” value [6, 10] was 80.0% and the “% of the products formed, NMP” value [6, 10] was 1.8%. The “% of the products formed, NDP” value [7, 11] was 60.0%, the “% of the products formed, NMP” value [7, 11] was 13.0% and the “% of the products formed, NTP” value [7, 11] was 8%. For the same molecule, the “% of the products formed, NDP” value [7, 12] was 4.6%, the “% of the products formed, NMP” value [7, 12] was 1.4% and the “% of the products formed, NTP” value [7, 12] was 81%.
For ganciclovir monophosphate [GCVMP], the Km [1] is listed as 42 to 54 µM and 40 µM, the Vmax [1] is listed as 20^a μmol/min/mg and the Km [2] is listed as 18 µM. For the same molecule, the Vmax [2] was 40 µmol/min/mg and the “phosphorylation rate of yeast guanylate kinase relative to human enzyme” value ([2]; yeast vs human GMPK) was “twice as high”.
With Nc1nc(O)c2ncn(COC(CO)CO)c2n1 [GCV, ganciclovir] the GCVDP formed ([3]; Fusion 2 μg, GCV 50 μM) was 4900** pmmol, the GCVDP formed ([3]; Fusion 2 μg, GCV 100 μM) was 8270** pmmol and the “improvement in phosphorylation by TK-GMPK fusion protein, factor” value ([3]; compared with coincubation of wild-type TK enzyme and GMPK enzyme) was at most 1.8. The GCVDP formed (Mixture 2-865:H12/GMPK; Mixture 2-865: H12/GMPK 1.66/0.33 μg, GCV 50 μM) was 5300** pmmol, the “% of the products formed, NDP” value [4, 13] was 78.4% and the “% of the products formed, NMP” value [4, 13] was 6.5%. The “% of the products formed, NTP” value [4, 13] was 12.9%, the “% of the products formed, NDP” value [4, 14] was 5.8% and the “% of the products formed, NMP” value [4, 14] was 0.6%. For the same molecule, the “% of the products formed, NTP” value [4, 14] was 92%, the GCVDP formed [8] was 4660** pmmol and the “phosphorylation of ganciclovir to ganciclovir diphosphate” value ([5]; coupling of HSV1-TK and GMPK from S. cerevisiae) was 90%. For the same molecule, the “% of the products formed, NMP” value ([5]; TK 1.3 μg, GMPK 2.5 μg, 60 min) was 4.4%, the “% of the products formed, NDP” value ([5]; TK 2.6 μg, GMPK 2.5 μg, 30 min) was 89.0% and the “% of the products formed, NMP” value ([5]; TK 2.6 μg, GMPK 2.5 μg, 30 min) was 7.5%. The “% of the products formed, NDP” value [5, 15] was 90.8%, the “% of the products formed, NMP” value [5, 15] was 5.3% and the “% of the products formed, NDP” value [6, 16] was 90.3%. For the same molecule, the “% of the products formed, NMP” value [6, 16] was 6.2%, the “% of the products formed, NTP” value [6, 16] was 1.5% and the “% of the products formed, NDP” value [6, 17] was 71.1%. The “% of the products formed, NMP” value [6, 17] was 2.5%, the “% of the products formed, NTP” value [6, 17] was 24% and the toxicity (mice) was “highly toxic”. For the same molecule, the “% of the products formed, NDP” value [7, 18] was 13.8%, the “% of the products formed, NMP” value [7, 18] was 3.2% and the “% of the products formed, NDP” value [7, 19] was 12.6%. For the same molecule, the “% of the products formed, NMP” value [7, 19] was 2.6%, the “% of the products formed, NDP” value [7, 20] was 6.9% and the “% of the products formed, NMP” value [7, 20] was 0.9%. The “% of the products formed, NTP” value [7, 20] was 91.1% and the tumour response (glioma) was “regressions of tumour”.
